Assay [1] has as its system H3K9ac and p53K382ac in HeLa cells. The assay is described as follows: Analysis of acetylation status in HeLa cells by western blotting. In kind it is cell-based, human. As to conditions: 48 h; concentrations as in proliferation assay. Here is the method:
5 × 10^4 cells were plated in 6-well plates and grown with the conditions and drug concentrations as described for the proliferation assay. Cells were harvested at 48 h and resuspendend in protein loading buffer. After sonication the samples were centrifuged at 14,000 rpm in an Eppendorf microcentrifuge (Eppendorf, DE) and the supernatants were analyzed by western-blot. The following antibodies were used: histone H3 (Cell Signaling #9715), histone H3K9ac (Cell Signaling # C5B11), GAPDH (Cell Signaling #D16H11), p53 (ThermoFisher #PA527822), and p53K382ac (Abcam 75754). Quantification was carried out using imageJ.

The test system of the next assay is deubiquitinases (DUBs). The assay is described as follows: DUB labeling on HEK293T cell lysate with Rhodamine-Ub-PA probe. In kind it is biochemical, human. Set-up: key to Qualitative pan-DUB inhibition @ 10 μM / Qualitative pan-DUB inhibition @ 50 μM: n.i.: no inhibition (<10%); +: low inhibition; +++: full inhibition. Particulars: for Qualitative pan-DUB inhibition @ 10 μM / Qualitative pan-DUB inhibition @ 50 μM: HEK293T cell lysate. Here is the method:
Pan-inhibition of deubiquitinases (DUBs) was tested using HEK293T cell lysate (human embryonic kidney cells, human). Cells were harvested and resuspended in HR buffer (50 mM Tris, 5 mM MgCl2, 250 mM sucrose, 1 mM DTT, pH 7.4). Cell lysis was achieved by sonication (Bioruptor, Diagenode, high intensity for 10 min with an ON/OFF cycle of 30 s) at 4°C and the cell debris was removed by centrifugation at 13,500 rpm for 15 min. Cell lysate protein concentration was determined with a NanoDrop spectrophotometer (NanoDrop One™ Spektrophotometer, Thermo Fisher, MA, USA) by measuring absorbance at 280 nm. Nineteen microliter of the lysate (2 μg/μL) were incubated with inhibitors dissolved in DMSO at various concentrations or DMSO as a control for 30 min at 37°C. Afterwards 1 μL of Rhodamine-Ub-PA (1 μM final assay concentration) was added to each sample, followed by further incubation for 40 min at 37°C ([61]). The labeling reaction was stopped by addition of NuPAGE 4× LDS sample buffer (Invitrogen Life Technologies, Carlsbad, CA, USA) containing β-mercaptoethanol and boiling for 7 min at 95°C. The proteins of the samples as well as protein marker (PageRuler™ Pre-stained Protein Ladder, 10–250 kDa, Thermo Fisher, MA, USA) were resolved by a 4–12% SDS-PAGE using the NuPAGE system with MOPS running buffer (Invitrogen Life Technologies, Carlsbad, CA, USA). The resulting gel was scanned with a Typhoon imager (GE Healthcare Life Sciences, USA) to visualize the Rhodamine-Ub-PA probe and Cy5 (marker). Subsequently the gel was stained with InstantBlue™ Protein Stain (Expedeon, UK) and scanned on a Amersham scanner (Amersham Typhoon gel and blot imaging system, GE Healthcare Life Sciences, USA).

The next assay relates to HeLa cells. The assay is described as follows: Cell proliferation assay with HeLa cells. In kind it is cell-based, human. Particulars: EX-527 20 μM, S1th 13 12 μM, S1th 12 20 μM, S1th 10 30 μM; up to 120 h. The method, then: 1.5 × 10^4 cells/well were seeded in 24-well plates and grown in DMEM 10% in presence of DMSO, 20 μM EX-527, 12 μM S1th 13, 20 μM S1th 12, or 30 μM S1th 10. The growth media containing the drugs was replaced every 48 h. Cells were collected and counted at the indicated times starting 24 h after seeding (0, 24, 48, 72, 96, and 120 h). The experiment was performed twice in duplicates.

Results on five compounds are retold here after publication PMC7203344, “Sirtuin 1 Inhibiting Thiocyanates (S1th)—A New Class of Isotype Selective Inhibitors of NAD^+ Dependent Lysine Deacetylases” (Frontiers in Oncology, 2020).

Consider `COc1ccc(SC#N)cc1OCC(=O)N(CCC#N)CCC#N` [S1th 12], for which, in assay [1], the “H3K9 acetylation in HeLa cells” value is on record as “clear effect on acetylation” and the “p53K382 acetylation in HeLa cells” value is “clear effect on acetylation”. In the assay on deubiquitinases (DUBs), the “Qualitative pan-DUB inhibition @ 10 μM” value is listed as “n.i. (no inhibition (<10%))” and the “Qualitative pan-DUB inhibition @ 50 μM” value was “n.i. (no inhibition (<10%))”. Also, the “cell proliferation of HeLa cells” value in the assay with HeLa cells is reported as “only showed a mild effect”.
Take `N#CSc1cccc(NC(=O)[C@H]2CC=CC[C@H]2C(=O)O)c1` [S1th 10]: in assay [1], the “H3K9 acetylation in HeLa cells” value was “clear effect on acetylation” and the “p53K382 acetylation in HeLa cells” value is reported as “clear effect on acetylation”. Also, in the assay on deubiquitinases (DUBs), the “Qualitative pan-DUB inhibition @ 10 μM” value is on record as “n.i. (no inhibition (<10%))” and the “Qualitative pan-DUB inhibition @ 50 μM” value was “n.i. (no inhibition (<10%))”. In addition, the “cell proliferation of HeLa cells” value with HeLa cells is on record as “significantly decreased cell proliferation”.
For the compound `CCCCNC(=O)Nc1cccc(SC#N)c1` [S1th 11], in the assay on deubiquitinases (DUBs), the “Qualitative pan-DUB inhibition @ 10 μM” value was “n.i. (no inhibition (<10%))” and the “Qualitative pan-DUB inhibition @ 50 μM” value was “n.i. (no inhibition (<10%))”.
Consider `N#CSc1cc(SC#N)c(N)nc1N` [PR-619, reference compound], for which, in the assay with deubiquitinases (DUBs), the “Qualitative pan-DUB inhibition @ 10 μM” value is “+” and the “Qualitative pan-DUB inhibition @ 50 μM” value was “+++”. Moreover, the “inhibition of DUBs (in words)” value in the assay with deubiquitinases (DUBs) (HEK cell lysate, Rhodamine-Ub-PA probe) is given as “inhibits all DUBs tested in a concentration dependent manner”.
For the compound `N#CSc1cccc(NS(=O)(=O)c2ccc3c(c2)OCCO3)c1` [S1th 13], in assay [1], the “H3K9 acetylation in HeLa cells” value is “clear effect on acetylation” and the “p53K382 acetylation in HeLa cells” value is given as “clear effect on acetylation”. In the assay on deubiquitinases (DUBs), the “Qualitative pan-DUB inhibition @ 10 μM” value is recorded as “n.i. (no inhibition (<10%))” and the “Qualitative pan-DUB inhibition @ 50 μM” value was “n.i. (no inhibition (<10%))”. For the same compound, the “cell proliferation of HeLa cells” value in the assay with HeLa cells was “significantly decreased cell proliferation”.
